Reference: US7964593B2, “Indolone-acetamide derivatives, processes for preparing them and their uses” (UCB Pharma, S.A., priority 2003, dated 2011)

Assays:
[1] = compared with levetiracetam, literature statement; cited from earlier work

| melting point | SMILES | activity in the treatment of epilepsy [1] |
| --- | --- | --- |
| 171 to 172 °C | C[C@H](C(N)=O)N1C(=O)Cc2cc(Cl)ccc21 (single isomer, unassigned) [Compound 33] | – |
| 171 to 172 °C | C[C@@H](C(N)=O)N1C(=O)Cc2cc(Cl)ccc21 (single isomer, unassigned) [Compound 34] | – |
| – | CC[C@H](C(N)=O)N1CCCC1=O [(R)-α-ethyl-2-oxo-1-pyrrolidine acetamide] | completely lacks activity |
